These results are taken from ChEMBL document CHEMBL1154911, “Structure and biosynthesis of amphidinol 17, a hemolytic compound from Amphidinium carterae” (J Nat Prod, 2010).

Data set [1] is described as follows: Toxicity in human RBC assessed as hemolytic activity after 24 hrs by microtiter plate assay. As to conditions: human red blood cells (RBC). It counts as cell-based, Erythrocyte.
The subject of data set [2] is Kluyveromyces marxianus. The data set can be described thus: Antifungal activity against Candida kefyr ATCC 2512 by disk diffusion method. Type of data set: functional, organism-based. In general terms: Agar diffusion results depend on both activity and mobility in agar.
For data set [3], the system named is Aspergillus niger. Nature of the data set: Antifungal activity against Aspergillus niger ATCC 16404 by disk diffusion method. It counts as functional, organism-based.

The source made the active and inactive calls. The rule behind the calls is not given here.

What is called EC50 is the concentration giving half of the maximal effect.

Take `C=CCC/C=C/C=C/C=C/CC/C=C/[C@@H](O)[C@H](O)C1O[C@@H]([C@H](O)[C@H](O)C(=C)CC[C@@H](O)C2C[C@@H](O)[C@@H](O)[C@H]([C@@H](O)[C@H](O)/C=C(\C)CC[C@H](O)C[C@H](O)[C@H](O)[C@@H](C)C[C@H](O)C(O)C(C)CCC(O)CCCC(O)CCCCCOS(=O)(=O)O)O2)C[C@@H](O)[C@H]1O` (stereo partly drawn) [AMPHIDINOL 17]: the EC50 at 24 h in data set [1] came out at 4.9 µM. For the same molecule, the outcome in data set [2] and in data set [3] was inactive.
